Source: PMC3925085, “Subditine, a New Monoterpenoid Indole Alkaloid from Bark of Nauclea subdita (Korth.) Steud. Induces Apoptosis in Human Prostate Cancer Cells” (PLoS ONE, 2014)

Experiments:
Format in all cases: cell-based
[1] = test system: LNCaP human prostate cancer cells; assay: MTT cell proliferation assay, LNCaP; conditions: for IC50: Homo sapiens, MTT, 24 hours, LNCaP, mean ± S.D.
Experimental: (§1) Human prostate normal cell line (RWPE-1) and human prostate cancer cell lines; LNCaP and PC-3, were purchased from the American Type Culture Collection (ATCC, Manassas, Virginia, USA). LNCaP and PC-3 cells were grown in Roswell Park Memorial Institute medium (RPMI) supplemented with 10% heat-inactivated fetal bovine serum (FBS, Sigma-Aldrich, St. Louis, MO), 1% penicillin and streptomycin. RWPE-1 cells were maintained in Keratinocyte Serum Free Medium (K-SFM, ATCC) supplemented with bovine pituitary extract (BPE) and human recombinant epidermal growth factor (EGF). Mediums were supplemented with 10% heat-inactivated fetal calf serum (Sigma.), 100 U/ml penicillin and […] streptomycin (Flowlab, Sydney, Australia). All cells were maintained in a humidified atmosphere of 5% CO2 in air at 37°C incubator.
(§2) The anti-proliferative activity was evaluated by performing MTT assays as previously described with minor modifications. Briefly, cells were seeded 24 hours prior to treatment in a 96-well plate at 5×10^4 cells/well in order to obtain 70% to 80% confluent cultures. The compounds were dissolved in DMSO (Sigma Chemical Co., St. Louis, Missouri, USA) followed by a 2×serial dilution for 10 points ranged from 0.825 µM to 100 µM. The 96-well plate was incubated for 24 hours at 37°C in a humidified atmosphere with 5% CO2. At the end of incubation, 50 µl of MTT solution (2 mg/ml; Sigma) was added to each well. The plate was then incubated for 4 hours. All medium was removed and the purple formazan crystal formed at the bottom of the wells was dissolved with 200 µl DMSO for 20 minutes. The absorbance at 570 nm was read on a spectrophotometric plate reader (Hidex). The proportion of surviving cells was calculated as: […]
(§3) Dose-response curves were constructed to obtain the IC50 values. Experimental data were derived from 3 independent experiments. The selectivity index was obtained by mean IC50 RWPE-1/mean IC50 of LNCaP or PC-3.

[2] = test system: PC-3 human prostate cancer cells; assay: MTT cell proliferation assay, PC-3; conditions: for IC50: Homo sapiens, MTT, 24 hours, PC-3, mean ± S.D.
Experimental: as §1, §2, §3

[3] = test system: RWPE-1 human normal prostate epithelial cells; assay: MTT cell proliferation assay, RWPE-1; conditions: 24 hours, RWPE-1 normal cells, mean ± S.D.
Experimental: as §1, §2, §3

SMILES	IC50 [1] [µM]	IC50 [2] [µM]	IC50 [3] [µM]	selectivity index (SI) LNCaP ([1]; mean IC50 RWPE-1/mean IC50 of LNCaP)	selectivity index (SI) PC-3 ([2]; mean IC50 RWPE-1/mean IC50 of PC-3)
Cc1cc2cc3n(c(=O)c2cn1)CCc1c-3[nH]c2ccccc12 [Angustidine, angustidine]	140.27 ± 0.1	84.9 ± 1.48	36.07 ± 0.05		
C=Cc1cncc2c(=O)n3c(cc12)-c1[nH]c2ccccc2c1CC3 [Angustine, angustine]	149.16 ± 0.09	122 ± 3.73	98.39 ± 0.1		

Continued, in another order:

IC50 [1] [µM]	IC50 [2] [µM]	SMILES	IC50 [3] [µM]	selectivity index (SI) LNCaP ([1]; mean IC50 RWPE-1/mean IC50 of LNCaP)	selectivity index (SI) PC-3 ([2]; mean IC50 RWPE-1/mean IC50 of PC-3)
58.09 ± 0.05	67.3 ± 0.87	CC(O)c1cncc2c(=O)n3c(cc12)-c1[nH]c2ccccc2c1CC3 (centres unmarked) [Angustoline, 1-(1-Hydroxyethyl)-7,8-dihydroindolo[2,3-a]pyridine[3,4-g]quinolizin-5(13H)-one]	65.94 ± 0.04		
86.35 ± 0.09	92.1 ± 1.28	O=c1c2cnccc2cc2n1CCc1c-2[nH]c2ccccc12 [Nauclefine, nauclefine]	72.85 ± 0.06		
1.27 ± 0.04	1.33 ± 0.02	CC(=O)O[C@H]1C(=O)[C@@]2(C)[C@H]([C@H](OC(=O)c3ccccc3)[C@]3(O)C[C@H](OC(=O)[C@H](O)[C@@H](NC(=O)c4ccccc4)c4ccccc4)C(C)=C1C3(C)C)[C@]1(OC(C)=O)CO[C@@H]1C[C@@H]2O [Paclitaxel, paclitaxel, reference compound]	1.58 ± 0.06	1.24	1.19
